Here are results for 1 substance from article PMC9103351, “Effects of the Bark Resin Extract of Garcinia nigrolineata on Chronic Stress-Induced Memory Deficit in Mice Model and the In Vitro Monoamine Oxidases and β-Amyloid Aggregation Inhibitory Activities of Its Prenylated Xanthone Constituents” (Molecules, 2022).

Test [1] concerns UCMS mice. Put plainly: Novel Object Recognition Test (NORT) in UCMS mice. Format: in vivo, ICR mice. To be noted: 100 mg/kg/day p.o. The method, then: (§1) Five-week-old male ICR mice (weight: 20–30 g), which were acquired from Nomura Siam International (Pathumwan, Bangkok, Thailand), were maintained at the Animal Unit of the Faculty of Pharmaceutical Sciences, Khon Kaen University. Mice were cared for in accordance with the Guiding Principles for the Care and Use of Animals (NIH Publications No. 80–23, revised in 2011). The facilities sustained a 12 h light/dark cycle, constant temperature (22 ± 2 °C), and humidity (45 ± 2%), with full access to food and drink. The current research was authorized by the Animal Ethics Committee for Use and Care of Khon Kaen University (IACUC-KKU-121/64)
Mice in the stress groups received mild stressors for 6 weeks. […]
The NORT is used to investigate the spatial recognition memory associated with the ability to discriminate between two sets of objects that differ in texture, color, and shape. […] The mouse was free to explore the objects for 5 min and the total time spent exploring each object and the percentage discrimination index were recorded. […] The exploration ratio was calculated according to the following equation:% Discrimination index = [(TN − TF)/(TN + TF)] × 100 where, TN = time devoted to the novel object, TF = time devoted to the familiar object.

The subject of test [2] is UCMS mice. Put plainly: Morris Water Maze Test (MWMT) in UCMS mice. Type of test: in vivo, ICR mice. The procedure:
as §1, with “20-30” for “20–30”, “80-23,” for “80–23,”, “(IACUC-KKU-121/64) Mice in the stress groups received mild stressors for 6 weeks. […] In each trial, the latency to reach the platform (escape latency) and the distance covered were recorded for 5 days. […] After completion of the probe test, the time spent in the target quadrant (Q1) was counted as an index of reference memory.” for “(IACUC-KKU-121/64)”

With vitamin E, the “discrimination index performance (NORT test phase)” value in the test with UCMS mice [1] is recorded as “significantly ameliorated”. Also, the “time spent in the target quadrant (MWMT probe, day 6)” value with UCMS mice [2] (100 mg/kg/day oral) is reported as “significantly increased”. For the same substance, in the test with UCMS mice [2] (three weeks of treatment, days 3, 4 and 5), the “escape latency (MWMT training)” value is recorded as “significantly reduced”.
